# Values of other authors in article PMC12019481 (Nature Communications, 2025).
# Legend:
# GAT1 = GAT1 (Homo sapiens, UniProt P30531)
# Sequence of GAT1 (P30531 whole entry): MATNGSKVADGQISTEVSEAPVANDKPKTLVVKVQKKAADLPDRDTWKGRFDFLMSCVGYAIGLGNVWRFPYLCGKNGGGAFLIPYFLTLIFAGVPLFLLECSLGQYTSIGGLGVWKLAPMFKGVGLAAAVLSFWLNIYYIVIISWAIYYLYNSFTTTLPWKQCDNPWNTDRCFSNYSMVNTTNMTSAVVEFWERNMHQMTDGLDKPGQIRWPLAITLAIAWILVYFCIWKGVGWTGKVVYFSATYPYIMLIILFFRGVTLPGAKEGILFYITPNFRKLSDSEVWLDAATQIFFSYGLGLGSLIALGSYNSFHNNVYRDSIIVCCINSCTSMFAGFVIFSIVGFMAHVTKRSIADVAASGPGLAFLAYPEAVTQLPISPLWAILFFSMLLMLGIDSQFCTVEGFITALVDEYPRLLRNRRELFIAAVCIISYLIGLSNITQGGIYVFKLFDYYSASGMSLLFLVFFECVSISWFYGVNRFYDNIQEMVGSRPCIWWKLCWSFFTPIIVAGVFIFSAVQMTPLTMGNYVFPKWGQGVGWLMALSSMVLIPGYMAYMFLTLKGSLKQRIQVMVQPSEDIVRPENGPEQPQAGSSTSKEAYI
Molecule,selectivity for GAT3 (GAT3),selectivity for GAT1 (GAT1)
5-(2-Thienyl)Isatin,~ 167 fold,–
Cc1ccsc1C(=CCCN1CCC[C@@H](C(=O)O)C1)c1sccc1C [tiagabine],–,"10,000–20,000 fold"
